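The compound was tested at five concentrations on cells cultured in 96-well plates, with a 48-hour exposure period. Here, GI50 denotes the concentration required for 50% inhibition of growth.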 Calls of active or inactive are those of the source. No stated cut-off is given here; in the data, active = GI50 up to about 1.1 µM and inactive = higher.
What was measured:
Assay in all cases: NCI-60 cell line screen, 48 h
UACC-257 = test system: UACC-257
MDA-MB-231 = test system: MDA-MB-231
NCI/ADR-RES = test system: NCI/ADR-RES
SF-295 = test system: SF-295
OVCAR-8 = test system: OVCAR-8
T47D = test system: T47D
HCT-116 = test system: HCT-116
CCRF-CEM = test system: CCRF-CEM
SN12C = test system: SN12C
HCC 2998 = test system: HCC 2998
A549 = test system: A549
RPMI-8226 = test system: RPMI-8226
SNB-75 = test system: SNB-75
Malme-3M = test system: Malme-3M
HOP-62 = test system: HOP-62
SF-539 = test system: SF-539
NCI-H460 = test system: NCI-H460
OVCAR-5 = test system: OVCAR-5
MOLT-4 = test system: MOLT-4
SNB-19 = test system: SNB-19
M14 = test system: M14
K562 = test system: K562
DU-145 = test system: DU-145
OVCAR-4 = test system: OVCAR-4
SK-MEL-28 = test system: SK-MEL-28
ACHN = test system: ACHN
EKVX = test system: EKVX
SW-620 = test system: SW-620
CAKI-1 = test system: CAKI-1
MDA-MB-435 = test system: MDA-MB-435
SK-OV-3 = test system: SK-OV-3
MCF7 = test system: MCF7
U-251 = test system: U-251
SF-268 = test system: SF-268
PC-3 = test system: PC-3
HCT-15 = test system: HCT-15
LOX IMVI = test system: LOX IMVI
TK-10 = test system: TK-10
HL-60 = test system: HL-60
UO-31 = test system: UO-31
BT-549 = test system: BT-549
NCI-H522 = test system: NCI-H522
OVCAR-3 = test system: OVCAR-3
Hs-578T = test system: Hs-578T
HOP-92 = test system: HOP-92
NCI-H23 = test system: NCI-H23
786-0 = test system: 786-0
SR = test system: SR
HT-29 = test system: HT-29
COLO 205 = test system: COLO 205
IGROV-1 = test system: IGROV-1
MDA-N = test system: MDA-N
SK-MEL-5 = test system: SK-MEL-5
SK-MEL-2 = test system: SK-MEL-2
KM12 = test system: KM12
UACC-62 = test system: UACC-62
NCI-H226 = test system: NCI-H226

Oc1ccccc1-n1nc2ccc3nonc3c2n1
GI50 (UACC-257): > 100 µM (inactive)
GI50 (MDA-MB-231): > 100 µM (inactive)
GI50 (NCI/ADR-RES): > 100 µM (inactive)
GI50 (SF-295): > 100 µM (inactive)
GI50 (OVCAR-8): > 100 µM (inactive)
GI50 (T47D): > 100 µM (inactive)
GI50 (HCT-116): > 100 µM (inactive)
GI50 (CCRF-CEM): > 100 µM (inactive)
GI50 (SN12C): > 100 µM (inactive)
GI50 (HCC 2998): 40.9 µM (inactive)
GI50 (A549): > 100 µM (inactive)
GI50 (RPMI-8226): > 100 µM (inactive)
GI50 (SNB-75): > 100 µM (inactive)
GI50 (Malme-3M): > 100 µM (inactive)
GI50 (HOP-62): 90.2 µM (inactive)
GI50 (SF-539): > 100 µM (inactive)
GI50 (NCI-H460): > 100 µM (inactive)
GI50 (OVCAR-5): > 100 µM (inactive)
GI50 (MOLT-4): > 100 µM (inactive)
GI50 (SNB-19): > 100 µM (inactive)
GI50 (M14): > 100 µM (inactive)
GI50 (K562): > 100 µM (inactive)
GI50 (DU-145): > 100 µM (inactive)
GI50 (OVCAR-4): > 100 µM (inactive)
GI50 (SK-MEL-28): > 100 µM (inactive)
GI50 (ACHN): > 100 µM (inactive)
GI50 (EKVX): 48.1 µM (inactive)
GI50 (SW-620): > 100 µM (inactive)
GI50 (CAKI-1): > 100 µM (inactive)
GI50 (MDA-MB-435): > 100 µM (inactive)
GI50 (SK-OV-3): > 100 µM (inactive)
GI50 (MCF7): > 100 µM (inactive)
GI50 (U-251): > 100 µM (inactive)
GI50 (SF-268): > 100 µM (inactive)
GI50 (PC-3): > 100 µM (inactive)
GI50 (HCT-15): 51.3 µM
GI50 (LOX IMVI): > 100 µM (inactive)
GI50 (TK-10): > 100 µM (inactive)
GI50 (HL-60): > 100 µM (inactive)
GI50 (UO-31): 77.4 µM (inactive)
GI50 (BT-549): > 100 µM (inactive)
GI50 (NCI-H522): > 100 µM (inactive)
GI50 (OVCAR-3): > 100 µM (inactive)
GI50 (Hs-578T): > 100 µM (inactive)
GI50 (HOP-92): > 100 µM (inactive)
GI50 (NCI-H23): > 100 µM (inactive)
GI50 (786-0): > 100 µM (inactive)
GI50 (SR): > 100 µM (inactive)
GI50 (HT-29): > 100 µM (inactive)
GI50 (COLO 205): > 100 µM (inactive)
GI50 (IGROV-1): > 100 µM (inactive)
GI50 (MDA-N): > 100 µM (inactive)
GI50 (SK-MEL-5): > 100 µM (inactive)
GI50 (SK-MEL-2): > 100 µM (inactive)
GI50 (KM12): 30.3 µM (inactive)
GI50 (UACC-62): > 100 µM (inactive)
GI50 (NCI-H226): > 100 µM (inactive)
